Source: patent US20250059207A1, “6,6-FUSED HETEROCYCLIC COMPOUNDS AS METTL3 INHIBITORS” (858 Therapeutics, Inc., priority 2021, published 2025)

What follows are compounds tested on MOLM-13 cells (assay: Viability assay in MOLM-13 cells (CellTiter-Glo 2.0)). Conditions: Homo sapiens, MOLM-13, 72 h, read-out: MOLM-13 IC50 (cell viability).
Type: cell-based, human
Description: Effects of test compounds on the proliferation and viability of human AML cells was evaluated using the MOLM-13 cell line (AddexBio Technologies cat. no. C0003003). […] Test compounds or controls (Bortezomib or DMSO) diluted in 2% DMSO/media were added to each well for final concentrations of 0.2% DMSO and 0.1-1 μM Bortezomib. The cells were incubated for 72 hours at 37° C. and 5% CO2. At the end of the 72 hour incubation, plates were removed from the incubator, cooled to room temperature and equal volume of CellTiter-Glo 2.0 (Promega) added to each well. After mixing and incubating the plate at room temperature for 10 minutes the luminescence was read using a plate reader. […] Concentration-response-curves and IC50 values were generated using Collaborative Drug Discovery software.

O=c1c2cncc(-c3ccccc3)c2ccn1Cc1cn2cc(CNC3(c4ccccc4)CC3)ccc2n1 [Compound 78, 5-phenyl-2-((6-(((1-phenylcyclopropyl)amino)methyl)imidazo[1,2-a]pyridin-2-yl)methyl)-2,7-naphthyridin-1(2H)-one] and O=c1c2cncc(-c3ccccc3)c2ccn1Cc1cn2cc(-c3cc(N4CCC4)ccn3)ccc2n1 [Compound 105, 2-((6-(4-(azetidin-1-yl)pyridin-2-yl)imidazo[1,2-a]pyridin-2-yl)methyl)-5-phenyl-2,7-naphthyridin-1(2H)-one] fall in the same range of IC50: 1 to 10 µM for the first, 1 to 10 µM for the second.

Compound Cc1ccc2nc(Cn3ccc4c(N5CCC5)cncc4c3=O)cn2c1 [Compound 9, 5-(azetidin-1-yl)-2-((6-methylimidazo[1,2-a]pyridin-2-yl)methyl)-2,7-naphthyridin-1(2H)-one] has an IC50 of over 10 µM.

Same assay, conditions: MOLM-13 human AML cells, 72 hours, CellTiter-Glo 2.0; read-out: MOLM-13 IC50 (cell viability)

CC(=O)Nc1ccc(-c2cncc3c(=O)n(Cc4cn5cc(CNCC6CC(F)C6)ccc5n4)ccc23)cn1 (stereo not drawn) [Compound 87, N-(5-(7-((6-((((3-fluorocyclobutyl)methyl)amino)methyl)imidazo[1,2-a]pyridin-2-yl)methyl)-8-oxo-7,8-dihydro-2,7-naphthyridin-4-yl)pyridin-2-yl)acetamide] and O=c1c2cncc(N3CC(c4ccncc4)C3)c2ccn1Cc1cn2cc(CNCC3CC(F)C3)ccc2n1 (stereo not drawn) [Compound 149, 2-{[6-({[(3-fluorocyclobutyl)methyl]amino}methyl)imidazo[1,2-a]pyridin-2-yl]methyl}-5-[3-(pyridin-4-yl)azetidin-1-yl]-1,2-dihyro-2,7-naphthyridin-1-one] fall in the same range of IC50: 1 to 10 µM for the first, 1 to 10 µM for the second.

First: CC1(C#N)CCN(Cc2ccc3nc(Cn4ccc5c(N6CC7(CCOCC7)C6)cncc5c4=O)cn3c2)CC1 [Compound 134, 4-methyl-1-({2-[(5-{7-oxa-2-azaspiro[3.5]nonan-2-yl}-1-oxo-1,2-dihydro-2,7-naphthyridin-2-yl)methyl]imidazo[1,2-a]pyridin-6-yl}methyl)piperidine-4-carbonitrile]
Second: O=c1c2cncc(N3CC4(CCOCC4)C3)c2ccn1Cc1cn2cc(CN3CCC4(CC3)CC4)ccc2n1 [Compound 127, 2-{[6-({6-azaspiro[2.5]octan-6-yl}methyl)imidazo[1,2-a]pyridin-2-yl]methyl}-5-{7-oxa-2-azaspiro[3.5]nonan-2-yl}-1,2-dihydro-2,7-naphthyridin-1-one]
The IC50 of the first is higher: over 10 µM for the first, 1 to 10 µM for the second. The second is the more potent here.

O=c1c2cncc(N3CC4(CCOCC4)C3)c2ccn1Cc1cn2cc(CN3CCC(C(F)(F)F)CC3)ccc2n1 [Compound 132, 5-{7-oxa-2-azaspiro[3.5]nonan-2-yl}-2-[(6-{[4-(trifluoromethyl)piperidin-1-yl]methyl}imidazo[1,2-a]pyridin-2-yl)methyl]-1,2-dihydro-2,7-naphthyridin-1-one] and CC1CCN(Cc2ccc3nc(Cn4ccc5c(N6CC7(CCOCC7)C6)cncc5c4=O)cn3c2)CC1 [Compound 138, 2-({6-[(4-methylpiperidin-1-yl)methyl]imidazo[1,2-a]pyridin-2-yl}methyl)-5-{7-oxa-2-azaspiro[3.5]nonan-2-yl}-1,2-dihydro-2,7-naphthyridin-1-one] fall in the same range of IC50: 1 to 10 µM for the first, 1 to 10 µM for the second.

Cc1ccc2nc(Cn3ccc4c(C#CC5CC5)cncc4c3=O)cn2c1 [Compound 46, 5-(cyclopropylethynyl)-2-((6-methylimidazo[1,2-a]pyridin-2-yl)methyl)-2,7-naphthyridin-1(2H)-one] and Cc1ccc2nc(Cn3ccc4c(C5CC5)cncc4c3=O)cn2c1 [Compound 11, 5-cyclopropyl-2-((6-methylimidazo[1,2-a]pyridin-2-yl)methyl)-2,7-naphthyridin-1(2H)-one] cannot be ordered by IC50: over 10 µM for the first, over 10 µM for the second.

O=c1c2cncc(N3CC(N4CCC(F)CC4)C3)c2ccn1Cc1cn2cc(CNCC3CC(F)C3)ccc2n1 (stereo not drawn) [Compound 148, 2-{[6-({[(3-fluorocyclobutyl)methyl]amino}methyl)imidazo[1,2-a]pyridin-2-yl]methyl}-5-[3-(4-fluoropiperidin-1-yl)azetidin-1-yl]-1,2-dihydro-2,7-naphthyridin-1-one] and O=c1c2cncc(N3CC4(CCC4)C3)c2ccn1Cc1cn2cc(CNCC3CC(F)C3)ccc2n1 (stereo not drawn) [Compound 110, 2-((6-((((3-fluorocyclobutyl)methyl)amino)methyl)imidazo [1,2-a]pyridin-2-yl)methyl)-5-(2-azaspiro[3.3]heptan-2-yl)-2,7-naphthyridin-1(2H)-one] fall in the same range of IC50: 1 to 10 µM for the first, 1 to 10 µM for the second.

O=c1c2cncc(N3CCC4(C3)CC(F)(F)C4)c2ccn1Cc1cn2cc(CNCC3CC(F)C3)ccc2n1 (stereo not drawn) [Compound 147, 5-{2,2-difluoro-6-azaspiro[3.4]octan-6-yl}-2-{[6-({[(3-fluorocyclobutyl)methyl]amino}methyl)imidazo[1,2-a]pyridin-2-yl]methyl}-1,2-dihydro-2,7-naphthyridin-1-one] and O=c1c2cncc(N3CC4(CCC(F)(F)CC4)C3)c2ccn1Cc1cn2cc(CNCC3CC(F)C3)ccc2n1 (stereo not drawn) [Compound 146, 5-{7,7-difluoro-2-azaspiro[3.5]nonan-2-yl}-2-{[6-({[(3-fluorocyclobutyl)methyl]amino}methyl)imidazo[1,2-a]pyridin-2-yl]methyl}-1,2-dihydro-2,7-naphthyridin-1-one] fall in the same range of IC50: 1 to 10 µM for the first, 1 to 10 µM for the second.

First: O=c1c2cncc(N3CC4(CCCOC4)C3)c2ccn1Cc1cn2cc(CNCC3CC(F)C3)ccc2n1 (stereo not drawn) [Compound 145, 2-{[6-({[(3-fluorocyclobutyl)methyl]amino}methyl)imidazo[1,2-a]pyridin-2-yl]methyl}-5-{6-oxa-2-azaspiro[3.5]nonan-2-yl}-1,2-dihydro-2,7-naphthyridin-1-one]
Second: O=c1c2cncc(C3CCC3)c2ccn1Cc1cn2cc(CNCC3CC(F)C3)ccc2n1 (stereo not drawn) [Compound 156, 5-cyclobutyl-2-{[6-({[(3-fluorocyclobutyl)methyl]amino}methyl)imidazo[1,2-a]pyridin-2-yl]methyl}-1,2-dihydro-2,7-naphthyridin-1-one]
The IC50 of the first is lower: 1 to 10 µM for the first, over 10 µM for the second. The first is the more potent here.

First: O=c1c2cncc(-c3ccccc3)c2ccn1Cc1cn2cc(CNCC3(F)CCC3)ccc2n1 [Compound 75, 2-((6-((((1-fluorocyclobutyl)methyl)amino)methyl)imidazo[1,2-a]pyridin-2-yl)methyl)-5-phenyl-2,7-naphthyridin-1(2H)-one]
Second: O=c1c2cncc(-c3ccccc3)c2ccn1Cc1cn2cc(CNc3ccccn3)ccc2n1 [Compound 100, 5-phenyl-2-((6-((pyridin-2-ylamino)methyl)imidazo[1,2-a]pyridin-2-yl)methyl)-2,7-naphthyridin-1(2H)-one]
The IC50 of the first is higher: over 10 µM for the first, 1 to 10 µM for the second.

First: O=c1c2cncc(N3CC4(CCOCC4)C3)c2ccn1Cc1cn2cc(CN3CCC4(CC3)CC4(F)F)ccc2n1 [Compound 141, 2-{[6-({1,1-difluoro-6-azaspiro[2.5]octan-6-yl}methyl)imidazo[1,2-a]pyridin-2-yl]methyl}-5-{7-oxa-2-azaspiro[3.5]nonan-2-yl}-1,2-dihydro-2,7-naphthyridin-1-one]
Second: O=c1c2cncc(N3CC4(CCOCC4)C3)c2ccn1Cc1cn2cc(CN3CC4(C3)CC(F)(F)C4)ccc2n1 [Compound 135, 2-{[6-({6,6-difluoro-2-azaspiro[3.3]heptan-2-yl}methyl)imidazo[1,2-a]pyridin-2-yl]methyl}-5-{7-oxa-2-azaspiro[3.5]nonan-2-yl}-1,2-dihydro-2,7-naphthyridin-1-one]
The IC50 of the first is higher: over 10 µM for the first, 1 to 10 µM for the second.

First: O=c1c2cncc(N3CC(c4ccc(F)cc4)C3)c2ccn1Cc1cn2cc(CNCC3CC(F)C3)ccc2n1 (stereo not drawn) [Compound 150, 2-{[6-({[(3-fluorocyclobutyl)methyl]amino}methyl)imidazo[1,2-a]pyridin-2-yl]methyl}-5-[3-(4-fluorophenyl)azetidin-1-yl]-1,2-dihydro-2,7-naphthyridin-1-one]
Second: Cc1ccc2nc(Cn3ccc4c(N5CC(c6ccccc6)C5)cncc4c3=O)cn2c1 [Compound 7, 2-((6-methylimidazo[1,2-a]pyridin-2-yl)methyl)-5-(3-phenylazetidin-1-yl) 2,7-naphthyridin-1(2H)-one]
The IC50 of the first is lower: 1 to 10 µM for the first, over 10 µM for the second. The first is the more potent here.

O=c1c2cncc(N3CC4(CCOCC4)C3)c2ccn1Cc1cn2cc(CN3CCC4(CCCC4)C3)ccc2n1 [Compound 137] and CC1(C)CCN(Cc2ccc3nc(Cn4ccc5c(N6CCC(F)(F)CC6)cncc5c4=O)cn3c2)CC1 [Compound 112, 5-(4,4-difluoropiperidin-1-yl)-2-({6-[(4,4-dimethylpiperidin-1-yl)methyl]imidazo[1,2-a]pyridin-2-yl}methyl)-1,2-dihydro-2,7-naphthyridin-1-one] fall in the same range of IC50: 1 to 10 µM for the first, 1 to 10 µM for the second.

Cc1ccc2nc(Cn3cc(C)c4ccncc4c3=O)cn2c1 [Compound 49, 4-methyl-2-((6-methylimidazo[1,2-a]pyridin-2-yl)methyl)-2,7-naphthyridin-1(2H)-one] and O=c1c2cncc(C3CC3)c2ccn1Cc1cn2cc(CNCC3CCC3)ccc2n1 [Compound 88, 2-((6-(((cyclobutylmethyl)amino)methyl)imidazo[1,2-a]pyridin-2-yl)methyl)-5-cyclopropyl-2,7-naphthyridin-1(2 h)-one] fall in the same range of IC50: 1 to 10 µM for the first, 1 to 10 µM for the second.

COc1ccnc(NCc2ccc3nc(Cn4ccc5c(-c6ccccc6)cncc5c4=O)cn3c2)c1 [Compound 101, 2-((6-(((4-methoxypyndin-2-yl)amino)methyl)imidazo[1,2-a]pyridin-2-yl)methyl)-5-phenyl-2,7-naphthyridin-1(2H)-one] and O=c1c2cncc(-c3ccccc3)c2ccn1Cc1cn2cc(CNC(CO)c3ccccc3)ccc2n1 (stereo not drawn) [Compound 82, 2-((6-(((2-hydroxy-1-phenylethyl)amino)methyl)imidazo[1,2-a]pyridin-2-yl)methyl)-5-phenyl-2,7-naphthyridin-1(2H)-one] fall in the same range of IC50: 1 to 10 µM for the first, 1 to 10 µM for the second.

In the case of O=c1c2cncc(N3CC4(COC4)C3)c2cnn1Cc1cn2cc(CNCC34CC(F)(C3)C4)ccc2n1 [Compound 157, 3-[(6-{[({3-fluorobicyclo[1.1.1]pentan-1-yl}methyl)amino]methyl}imidazo[1,2-a]pyridin-2-yl)methyl]-8-{2-oxa-6-azaspiro[3.3]heptan-6-yl}pyrido[3,4-d]pyridazin-4-one], the IC50 is reported as 1 to 10 µM.
